# Literature values, collected in US10327463B2 (priority 2015, dated 2019).
# Where a name gives a salt, the structure may show the parent alone.
# Legend:
# [1] = system: Listeria monocytogenes; settings: maximum allowed level of 156 ppm, without adjunct antimicrobials
# [2] = system: Clostridium species; settings: cured products, processed meat formulations
# [3] = system: Listeria monocytogenes; settings: alone or with additional antimicrobials; turkey slurries with and without sodium nitrite
# [4] = system: C. perfringens
smiles,measurement,setting,value
O=NO [sodium nitrite],inhibition of Listeria monocytogenes,[1],insufficient for the inhibition of Listeria monocytogenes
same,level sufficient for the inhibition of Clostridium species,[2],approx. 50 ppm
CC(=O)O.CC(=O)[O-].[Na+] [sodium diacetate],level effective in controlling Listeria monocytogenes,[3],0.3-0.5%
"CC(=O)O [acetic acid or its salt, acetic acid]",inhibition of C. perfringens,[4],failed to inhibit C. perfringens
